# Biological target: T1, human PLK1 (Homo sapiens, UniProt P53350)
# T1 construct: FLAG (DYKDDDDK) (N); made in house; host or cells: Sf21 insect cells, recombinant baculovirus (pFASTBAC1, Bac-to-Bac)
# Assay: PLK1 in vitro enzymatic activity assay (phosphorylation of alpha casein by recombinant PLK1)
# Format: biochemical
# Conditions: not given
# Experimental: PCR was performed using the vector as a template. […] After XbaI and XhoI digestion of the PCR product, the fragment was subcloned into pFASTBAC1 (Invitrogen, USA). Recombinant baculoviruses were prepared according to the procedure of the Bac-to-Bac baculovirus expression system (Invitrogen, USA). Sf21 cells were purchased from Invitrogen and grown in Sf-900 II SFM medium containing 10% fetal bovine serum, 50 μg/mL gentamicin and 0.1% pluronic F-68 (Invitrogen, USA) at 28° C. For preparation of PLK1 enzyme, Sf21 cells were infected with recombinant baculoviruses and cultured at 28° C. for 72 h.
# The inhibition of PLK1 by the compounds was determined with the following assay that measures the phosphorylation of alpha casein by recombinant PLK1. Kinase reactions were performed at room temperature for 40 min in the kinase reaction buffer (25 mmol/L HEPES, pH 7.5, 10 mmol/L magnesium acetate, 1 mmol/L dithiothreitol) containing 50 ng PLK1 enzyme, 0.1 μCi [γ-^32P]ATP, 500 nmol/L ATP and 3 μg alpha casein (MP Biomedicals Inc., USA) in a final volume of 50 μL. The incubation was terminated by the addition of 10% trichloroacetic acid (Wako, Japan). Phosphorylated proteins were filtrated in GF/C filter plates (Packard, USA) with a Cell harvester (Packard, USA) and washed out free [γ-^32P]-ATP with 250 mmol/L phosphoric acid. Then, the plates were air dried for 60 min at 45° C., followed by the addition of 20 μL of MicroScint-O (Packard, USA). The radioactivity was counted by a Top-count scintillation counter (Packard, USA).
# T1 sequence (P53350 with tags, fused parts or gaps): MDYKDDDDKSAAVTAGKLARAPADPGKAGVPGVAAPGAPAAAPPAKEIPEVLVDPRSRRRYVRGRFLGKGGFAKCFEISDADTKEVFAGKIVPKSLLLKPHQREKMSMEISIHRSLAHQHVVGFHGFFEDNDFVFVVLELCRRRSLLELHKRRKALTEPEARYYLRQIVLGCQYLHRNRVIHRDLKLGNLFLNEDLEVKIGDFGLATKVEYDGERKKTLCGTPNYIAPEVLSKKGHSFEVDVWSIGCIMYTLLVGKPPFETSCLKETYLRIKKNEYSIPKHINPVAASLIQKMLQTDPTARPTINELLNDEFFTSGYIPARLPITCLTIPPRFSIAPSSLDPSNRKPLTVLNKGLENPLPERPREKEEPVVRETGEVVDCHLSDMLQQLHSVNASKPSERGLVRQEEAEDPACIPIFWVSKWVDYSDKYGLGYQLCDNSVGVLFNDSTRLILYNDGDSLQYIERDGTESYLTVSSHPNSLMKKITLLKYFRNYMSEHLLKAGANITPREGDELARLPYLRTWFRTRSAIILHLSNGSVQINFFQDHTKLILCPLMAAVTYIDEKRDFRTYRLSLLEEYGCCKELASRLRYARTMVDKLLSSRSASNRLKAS
row,Structure (SMILES),IC50 [nM]
1,"CCN1CCN(NC(=O)c2ccc(Nc3ncc4c(n3)N(C3CCCCC3)CC(F)(F)C(=O)N4C)c(OC)c2)CC1 [Compound 78, 4-(9-cyclohexyl-7,7-difluoro-5-methyl-6-oxo-6,7,8,9-tetrahydro-5H-pyrimido[4,5-b][1,4]diazepin-2-ylamino)-N-(4-ethylpiperazin-1-yl)-3-methoxybenzamide]",≤ 2

# Same assay, conditions: recombinant FLAG-tagged PLK1, alpha casein substrate, 500 nmol/L ATP, 40 min at room temperature; read-out: pIC50 (PLK1) (converted)
row,Structure (SMILES),IC50 [nM]
1,"CN1CCC(NC(=O)c2ccc(Nc3ncc4c(n3)N(C3CCCC3)CC(F)(F)C(=O)N4C)c(F)c2)CC1 [Compound 22, 4-(9-Cyclopentyl-7,7-difluoro-5-methyl-6-oxo-6,7,8,9-tetrahydro-5H-pyrimido[4,5-b][1,4]diazepin-2-ylamino)-3-fluoro-N-(1-methylpiperidin-4-yl)benzamide]",≤ 2
2,"COc1cc(C(=O)NC2CCCN(C)CC2)ccc1Nc1ncc2c(n1)N(C1CCCC1)CC(F)(F)C(=O)N2C (centres unmarked) [Compound 15, 4-(9-cyclopentyl-7,7-difluoro-5-methyl-6-oxo-6,7,8,9-tetrahydro-5H-pyrimido[4,5-b][1,4]diazepin-2-ylamino)-3-methoxy-N-(1-methylazepan-4-yl)benzamide]",≤ 2
3,"COc1cc(C(=O)NC2CCN(CCO)CC2)ccc1Nc1ncc2c(n1)N(C1CCCC1)CC(F)(F)C(=O)N2C [Compound 5, 4-(9-cyclopentyl-7,7-difluoro-5-methyl-6-oxo-6,7,8,9-tetrahydro-5H-pyrimido[4,5-b][1,4]diazepin-2-ylamino)-N-(1-(2-hydroxyethyl)piperidin-4-yl)-3-methoxybenzamide]",≤ 2
4,"CN1CCC(NC(=O)c2ccc(Nc3ncc4c(n3)N(C3CCCC3)CC(F)(F)C(=O)N4C)c(Cl)c2)CC1 [Compound 24, 3-Chloro-4-(9-cyclopentyl-7,7-difluoro-5-methyl-6-oxo-6,7,8,9-tetrahydro-5H-pyrimido[4,5-b][1,4]diazepin-2-ylamino)-N-(1-methylpiperidin-4-yl)benzamide]",> 2
5,"COc1cc(C(=O)NC2CCN(C)CC2)ccc1Nc1ncc2c(n1)N(C1CCCCC1)CC(F)(F)C(=O)N2C [Compound 33, 4-(9-cyclohexyl-7,7-difluoro-5-methyl-6-oxo-6,7,8,9-tetrahydro-5H-pyrimido[4,5-b][1,4]diazepin-2-ylamino)-3-methoxy-N-(1-methylpiperidin-4-yl)benzamide]",≤ 2
6,"COc1cc(C(=O)N[C@@H]2CCCC[C@@H]2O)ccc1Nc1ncc2c(n1)N(C1CCCCC1)CC(F)(F)C(=O)N2C (racemic) [Compound 47, 4-(9-cyclohexyl-7,7-difluoro-5-methyl-6-oxo-6,7,8,9-tetrahydro-5H-pyrimido[4,5-b][1,4]diazepin-2-ylamino)-N-((cis)-2-hydroxycyclohexyl)-3-methoxybenzamide]",≤ 2
7,"COc1cc(C(=O)NC2CCN(C(=O)CN(C)C)CC2)ccc1Nc1ncc2c(n1)N(C1CCCC1)CC(F)(F)C(=O)N2C [Compound 11, 4-(9-cyclopentyl-7,7-difluoro-5-methyl-6-oxo-6,7,8,9-tetrahydro-5H-pyrimido[4,5-b][1,4]diazepin-2-ylamino)-N-(1-(2-(dimethylamino)acetyl)piperidin-4-yl)-3-methoxybenzamide]",≤ 2
8,"CN(C)CCOc1ccc(Nc2ncc3c(n2)N(C2CCCC2)CC(F)(F)C(=O)N3C)cc1 [Compound 17, 9-cyclopentyl-2-(4-(2-(dimethylamino)ethoxy)phenylamino)-7,7-difluoro-5-methyl-8,9-dihydro-5H-pyrimido[4,5-b][1,4]diazepin-6(7H)-one]",> 2
9,"COc1cc(C(=O)NC2CCCNCC2)ccc1Nc1ncc2c(n1)N(C1CCCCC1)CC(F)(F)C(=O)N2C (centres unmarked) [Compound 42, N-(azepan-4-yl)-4-(9-cyclohexyl-7,7-difluoro-5-methyl-6-oxo-6,7,8,9-tetrahydro-5H-pyrimido[4,5-b][1,4]diazepin-2-ylamino)-3-methoxybenzamide]",≤ 2

# Now from value to compound:
row,IC50 [nM],Structure (SMILES)
1,> 2,"COc1cc(C(=O)NCCN2CCCC2)ccc1Nc1ncc2c(n1)N(C1CCCCC1)CC(F)(F)C(=O)N2C [Compound 56, 4-(9-cyclohexyl-7,7-difluoro-5-methyl-6-oxo-6,7,8,9-tetrahydro-5H-pyrimido[4,5-b][1,4]diazepin-2-ylamino)-3-methoxy-N-(2-(pyrrolidin-1-yl)ethyl)benzamide]"
2,> 2,"COc1ccc(F)cc1Nc1ncc2c(n1)N(C1CCCC1)CC(F)(F)C(=O)N2C [Compound 120, 9-Cyclopentyl-7,7-difluoro-2-(5-fluoro-2-methoxyphenylamino)-5-methyl-8,9-dihydro-5H-pyrimido[4,5-b][1,4]diazepin-6(7H)-one]"
3,≤ 2,"C=CC1(F)CN(C2CCCC2)c2nc(Nc3ccc(C(=O)NC4CN(C)C4)cc3OC)ncc2N(C)C1=O (centres unmarked) [Compound 100, 4-(9-cyclopentyl-7-fluoro-5-methyl-6-oxo-7-vinyl-6,7,8,9-tetrahydro-5H-pyrimido[4,5-b][1,4]diazepin-2-ylamino)-3-methoxy-N-(1-methylazetidin-3-yl)benzamide]"
4,≤ 2,"COc1cc(C(=O)NC2CN(C(C)C)C2)c(F)cc1Nc1ncc2c(n1)N(C1CCCC1)CC(F)(F)C(=O)N2C [Compound 132, 4-(9-cyclopentyl-7,7-difluoro-5-methyl-6-oxo-6,7,8,9-tetrahydro-5H-pyrimido[4,5-b][1,4]diazepin-2-ylamino)-2-fluoro-N-(1-isopropylazetidin-3-yl)-5-methoxybenzamide]"
5,≤ 2,"COc1cc(C(=O)NN2CCCC2)ccc1Nc1ncc2c(n1)N(C1CCCCC1)CC(F)(F)C(=O)N2C [Compound 67, 4-(9-cyclohexyl-7,7-difluoro-5-methyl-6-oxo-6,7,8,9-tetrahydro-5H-pyrimido[4,5-b][1,4]diazepin-2-ylamino)-3-methoxy-N-(pyrrolidin-1-yl)benzamide]"
6,> 2,"C=C[C@@]1(F)CN(C2CCCC2)c2nc(Nc3ccc(C(=O)N[C@@H]4CCCNC4)cc3OC)ncc2N(C)C1=O [Compound 107, 4-((R)-9-cyclopentyl-7-fluoro-5-methyl-6-oxo-7-vinyl-6,7,8,9-tetrahydro-5H-pyrimido[4,5-b][1,4]diazepin-2-ylamino)-3-methoxy-N—((R)-piperidin-3-yl)benzamide]"
7,> 2,"CCC1(F)CN(C2CCCCC2)c2nc(Nc3ccc(C(=O)NC4CN(C)C4)cc3OC)ncc2N(C)C1=O (centres unmarked) [Compound 97, 4-(9-Cyclohexyl-7-ethyl-7-fluoro-5-methyl-6-oxo-6,7,8,9-tetrahydro-5H-pyrimido[4,5-b][1,4]diazepin-2-ylamino)-3-methoxy-N-(1-methylazetidin-3-yl)benzamide]"
8,≤ 2,"COc1cc(C(=O)NC2CCN(C)CC2)ccc1Nc1ncc2c(n1)N(C1CC[C@@H](C)C1)CC(F)(F)C(=O)N2C (stereo partly drawn) [Compound 83, 4-(7,7-difluoro-5-methyl-9-((3R)-3-methylcyclopentyl)-6-oxo-6,7,8,9-tetrahydro-5H-pyrimido[4,5-b][1,4]diazepin-2-ylamino)-3-methoxy-N-(1-methylpiperidin-4-yl)benzamide]"
9,> 2,"COc1cc(C(=O)NC2CCN(C(=O)CN(C)C)CC2)c(F)cc1Nc1ncc2c(n1)N(C1CCCC1)CC(F)(F)C(=O)N2C [Compound 118, 4-(9-Cyclopentyl-7,7-difluoro-5-methyl-6-oxo-6,7,8,9-tetrahydro-5H-pyrimido[4,5-b][1,4]diazepin-2-ylamino)-N-(1-(2-(dimethylamino)acetyl)piperidin-4-yl)-2-fluoro-5-methoxybenzamide]"
10,> 2,"COc1cc(C(=O)NCCCN(C)C)ccc1Nc1ncc2c(n1)N(C1CCCCC1)CC(F)(F)C(=O)N2C [Compound 54, 4-(9-cyclohexyl-7,7-difluoro-5-methyl-6-oxo-6,7,8,9-tetrahydro-5H-pyrimido[4,5-b][1,4]diazepin-2-ylamino)-N-(3-(dimethylamino)propyl)-3-methoxybenzamide]"
11,> 2,"CN1C(=O)C(F)(F)CN(C2CCCC2)c2nc(Nc3cccc4c3OC(F)(F)O4)ncc21 [Compound 136, 9-cyclopentyl-2-(2,2-difluorobenzo[d][1,3]dioxol-4-ylamino)-7,7-difluoro-5-methyl-8,9-dihydro-5H-pyrimido[4,5-b][1,4]diazepin-6(7H)-one]"
12,≤ 2,"COc1cc(C(=O)NC2CN(C3CCCC3)C2)c(F)cc1Nc1ncc2c(n1)N(C1CCCC1)CC(F)(F)C(=O)N2C [Compound 133, 4-(9-cyclopentyl-7,7-difluoro-5-methyl-6-oxo-6,7,8,9-tetrahydro-5H-pyrimido[4,5-b][1,4]diazepin-2-ylamino)-N-(1-cyclopentylazetidin-3-yl)-2-fluoro-5-methoxybenzamide]"
13,≤ 2,"COc1cc(C(=O)NC2CCN(C)CC2)ccc1Nc1ncc2c(n1)N(C1CCCC1)CC(F)C(=O)N2C (centres unmarked) [Compound 84, 4-(9-cyclopentyl-7-fluoro-5-methyl-6-oxo-6,7,8,9-tetrahydro-5H-pyrimido[4,5-b][1,4]diazepin-2-ylamino)-3-methoxy-N-(1-methylpiperidin-4-yl)benzamide]"
